Several values for one entry are separate records, joined by “and”; a condition that tells them apart may be missing. Identical values can stand only once. Marks after values point to notes of the source that are not given here. Blank lines part the entries; values can stand above or below the compound they belong to.
Assays:
[1] = test system: resident CD-1 mice; test: Resident-Intruder (RI) assay, CD-1 resident / C57BL/6 intruder; assay type: in vivo, mouse; conditions: CD-1 resident mice, cross-over, N=25, zolmitriptan 10 mg/kg, risperidone 0.03 mg/kg, mean; for Attack Time (s): 5 min period
Procedure: The resident mice were isolated for 1 week prior to testing aggressive behavior, while the intruders were group housed (4 per cage) throughout the study. All mice were given ad libitum food and water. Following the 1-week isolation period, aggressive behaviors were recorded using a front-facing camera daily (Monday-Friday) for up to 2 weeks to attain a stable baseline prior to evaluating drug effects. The interaction was scored using Borris open source event logging software to score the number of total initiated attacks by the resident and the cumulative duration of those attacks. Single fight bouts lasting longer than 60 seconds were stopped and the intruder was subsequently removed from the resident cage. […] Attack time was measured over a 5 min period as a cross over design.

[2] = biological target: T1, 5-HT1b receptor (Homo sapiens, UniProt P28222); test: 5-HT1b receptor occupancy and efficacy model, human dose prediction; conditions: for Zolmitriptan human dose: predicted dose; for Zolmitriptan [CSF]: predicted effective human CSF range
Description: Specifically, 5-HT1b receptor occupancy and efficacy models measured potency of zolmitriptan and NMDZ at the 5-HT1b receptor and the ratio of zolmitriptan: NDMZ in human CSF.
Using classical receptor theory, the receptor occupancy when considering two ligands (i.e., entities) can be predicted using the following relationship:
Total % occupancy=(% occupancy by A)+{[100%−(% occupancy by A)]×(% occupancy by B)} when considering a fixed concentration of both A and B.
The model was converted to predict the level of 5-HT1b activation (i.e., efficacy) by both zolmitriptan and NDMZ based on the concentration of zolmitriptan in the CSF by substituting Occupancy for Efficacy as predicted by the Clark equation {Efficacy=[L]/([L]+Ki); [L]=ligand concentration} for both zolmitriptan and NDMZ:
Total % Efficacy={[Zolmitriptan]/([Zolmitriptan]+Ki,Z)}+(100−{[Zolmitriptan]/([Zolmitriptan]+Ki,Z)}×{[NDMZ]/([NDMZ]+Ki,N)}

[3] = CSF exposure in c57/B16 mice after i.p. dosing
[4] = Multiple ascending oral dose study in adult healthy volunteers (safety, tolerability, CSF PK); assay type: in vivo, human
Procedure: An investigation of the safety, tolerability and pharmacokinetic response of oral zolmitriptan following multiple ascending doses in adult healthy volunteer subjects was undertaken.
Zolmitriptan 2.5 mg per tablet or placebo tablet was administered 3 times per day (TID) for an up-titration period, treatment period of 7 days, and a down-titration period. The dose regimen is depicted in Table 1.
A lumbar puncture was completed on each subject to determine the concentration of zolmitriptan in the CSF. CSF samples were collected on day 5 of treatment for Cohort 1 and day 7 of treatment for Cohorts 2 and 3, and day 8 of treatment for cohort 4 and 5. The CSF collection was 2 hours after the morning dose (+/−30 minutes). CSF concentration was measured using a validated bioanalytical method.

[5] = biological target: T1, 5-HT1b receptor; test: Radioligand binding competition assay with 3H-5-CT; conditions: for Ki: 3H-5-CT, derived from IC50 using Cheng-Prusoff equation
Description: The Ki values were derived from IC50 values using Cheng-Prusoff equation.

[6] = test system: VPA-exposed male c57/B16 mice; test: 3-chamber Social Interaction Assay in valproic acid (VPA)-induced mouse model of ASD; assay type: in vivo; conditions: adult male c57/B16 mice previously exposed to VPA; 10 mg/kg i.p. 15 min before test; vs vehicle
Procedure: Specifically, sociability was evaluated in male c57/B16 mice that were previously exposed to valproic acid (VPA) via i.p. delivery of 500 mg/kg to their pregnant mothers at embryonic Day 13.
In this study, zolmitriptan was dissolved in 10% (2-Hydroxypropyl)-o-cyclodextrin in saline and administered intraperitoneally (i.p.) 15 minutes before mice were placed in the test chamber. Behavioral recordings were measured using an automated video tracking system (Noldus EthoVision v14) and analyzed and graphed using GraphPad Prism software v8. Sociability was assessed during a 10 min period in the 3-chamber Social Interaction Assay. The time spent (sec) in the social interaction zone (SIZ) in front of the juvenile novel C57/BL6 vs empty interaction zone (EIZ) were used to calculate the sociability scores for individual mice. Sociability index was calculated using SIZ/EIZ ratio. Social interaction preference was calculated using (SIZ)/(SIZ+EIZ)*100. Simultaneous recording up to 4 arenas were conducted for the social interaction assay. Paired and unpaired T tests were used as statistical tests.

[7] = test system: resident BALB/c mice; test: Resident-Intruder (RI) assay, BALB/c resident / C57BL/6 intruder; assay type: in vivo, mouse
Description: Correspondingly, the RI assay has been used preclinically to study the effect of drugs on rodent aggression (Miczek et al., 2001). The RI assay typically relies on the interpretation and scoring of offensive (resident animal) behavior patterns and may also include analysis of defensive (intruder animal) behavior patterns as well. […] The resident mice were isolated for 1 week prior to testing aggressive behavior, while the intruders were group housed (4 per cage) throughout the study. All mice were given ad libitum food and water. Following the 1-week isolation period, aggressive behaviors were recorded using a front-facing camera daily (Monday-Friday) for up to 2 weeks to attain a stable baseline prior to evaluating drug effects. The interaction was scored using Borris open source event logging software to score the number of total initiated attacks by the resident and the cumulative duration of those attacks. Single fight bouts lasting longer than 60 seconds were stopped and the intruder was subsequently removed from the resident cage. […] The resident mice were treated with vehicle for two consecutive days and then balanced for a two arm (3 and 10 mg/kg) cross over study. […] The consecutive fourth and fifth days were vehicle treatment followed by a final cross over treatment day on the sixth day.

[8] = biological target: T2, rat recombinant 5-HT1b (r5-HT1b) receptors (Rattus norvegicus, UniProt P28564); test: SPA-based 35S-GTPγS binding assay, rat 5-HT1b; assay type: biochemical; conditions: for EC50: ten concentrations in duplicate
T2 construct: expressed in transfected cells

[9] = in vivo; conditions: male, CD-1, mouse, ip
[10] = biological target: T3, human 5-HT1b (h5-HT1b) receptors (Homo sapiens, UniProt P28222); test: SPA-based 35S-GTPγS binding assay, human 5-HT1b; assay type: biochemical; conditions: for EC50: ten concentrations in duplicate
T3 construct: expressed in transfected cells

[11] = CSF exposure in adult male CD-1 mice after i.p. dosing; conditions: male CD-1 mice dosed with zolmitriptan 3 and 10 mg/kg i.p.
[12] = male, c57/B16, mouse, CSF, ip, 10 mg/kg
[13] = BALB/c resident mice, 3 and 10 mg/kg i.p., 15 min pretreatment, 5 min interaction, cross-over vs vehicle

T2 sequence (P28564 whole entry): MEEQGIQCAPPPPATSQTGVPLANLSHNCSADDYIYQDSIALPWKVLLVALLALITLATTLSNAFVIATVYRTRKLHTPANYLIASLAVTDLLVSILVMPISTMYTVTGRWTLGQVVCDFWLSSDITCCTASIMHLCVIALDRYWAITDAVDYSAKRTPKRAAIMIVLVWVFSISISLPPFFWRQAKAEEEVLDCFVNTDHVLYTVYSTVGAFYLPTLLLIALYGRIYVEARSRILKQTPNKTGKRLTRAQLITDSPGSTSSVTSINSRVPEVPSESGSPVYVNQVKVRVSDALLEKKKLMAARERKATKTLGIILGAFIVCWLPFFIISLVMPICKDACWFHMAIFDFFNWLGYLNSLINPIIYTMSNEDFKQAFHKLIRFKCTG
T3 sequence (P28222 whole entry): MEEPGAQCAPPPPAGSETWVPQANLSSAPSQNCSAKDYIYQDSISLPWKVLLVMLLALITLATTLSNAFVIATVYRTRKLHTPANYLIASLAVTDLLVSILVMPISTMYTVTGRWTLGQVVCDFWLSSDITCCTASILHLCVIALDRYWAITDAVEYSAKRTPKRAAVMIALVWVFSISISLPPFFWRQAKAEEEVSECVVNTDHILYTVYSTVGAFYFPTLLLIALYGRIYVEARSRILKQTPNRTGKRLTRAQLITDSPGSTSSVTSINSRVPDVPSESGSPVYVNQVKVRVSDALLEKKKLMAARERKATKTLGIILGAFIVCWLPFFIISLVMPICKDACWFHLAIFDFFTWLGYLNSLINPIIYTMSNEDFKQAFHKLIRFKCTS
T1 sequence (P28222 whole entry): as above

- c57/B16 mouse CSF Cmax (10 mg/Kg, i.p.) ([3]; 10 mg/Kg i.p.): 90.20 ng/mL
- Kp [3, 12]: 0.0466
- EC50 [8]: 210 nM
SMILES: CN(C)CCc1c[nH]c2ccc(Cn3cncn3)cc12 [Rizatriptan, rizatriptan]

- c57/B16 mouse CSF Cmax (10 mg/Kg, i.p.) ([3]; 10 mg/Kg i.p.): 79.56 ng/mL
- Kp [3, 12]: 0.0312
- Ki [5]: 0.95 nM
- EC50 [8]: 7.4 nM
- EC50 [10]: 1.2 nM
SMILES: CNS(=O)(=O)CCc1ccc2[nH]cc(C3CCN(C)CC3)c2c1 [Naratriptan, naratriptan]

- c57/B16 mouse CSF Cmax (10 mg/Kg, i.p.) ([3]; 10 mg/Kg i.p.): 13.46 ng/mL
- Kp [3, 12]: 0.0077
- Ki [5]: 4.48 nM
- EC50 [8]: 120 nM
- EC50 [10]: 8.8 nM
SMILES: CN1CCC[C@@H]1Cc1c[nH]c2ccc(CCS(=O)(=O)c3ccccc3)cc12 [Eletriptan, eletriptan]

- c57/B16 mouse CSF Cmax (10 mg/Kg, i.p.) ([3]; 10 mg/Kg i.p.): 12.52 ng/mL
- Kp [3, 12]: 0.0015
SMILES: CN[C@@H]1CCc2[nH]c3ccc(C(N)=O)cc3c2C1 [Frovatriptan, frovatriptan]

The next lines start with the compound.

SMILES: Cc1nc2n(c(=O)c1CCN1CCC(c3noc4cc(F)ccc34)CC1)CCCC2 [Risperidone]
- Attack Time (s) [1]: 21.58* s
- Latency to Attack [1]: 12.98 s

SMILES: CN(C)CCc1c[nH]c2ccc(C[C@H]3COC(=O)N3)cc12 [Zolmitriptan, zolmitriptan]
- concentration for 50% Total Efficacy relative to zolmitriptan EC50 ([2]; combined effect of metabolite): 3.7 fold
- concentration of zolmitriptan in human CSF predicted to induce 50% efficacy (EC50) of 5-HT1b by zolmitriptan and NDMZ ([2]; model prediction): 1.09 nM and 0.31 ng/ml
- Zolmitriptan human dose ([2]; Activity EC20-EC80): 1.25 to 35 mg
- Zolmitriptan human dose ([2]; Activity EC25-EC75): 1.7 to 30 mg
- Zolmitriptan human dose ([2]; Activity EC30-EC70): 2.25 to 20 mg
- Zolmitriptan human dose ([2]; Activity EC35-EC65): 3 to 15 mg
- Zolmitriptan human dose ([2]; Activity EC40-EC60): 5 to 12.5 mg
- Zolmitriptan [CSF] ([2]; Activity EC20-EC80): 0.078 to 1.24 ng/mL
- Zolmitriptan [CSF] ([2]; Activity EC25-EC75): 0.103 to 0.93 ng/mL
- Zolmitriptan [CSF] ([2]; Activity EC30-EC70): 0.135 to 0.713 ng/mL
- Zolmitriptan [CSF] ([2]; Activity EC35-EC65): 0.167 to 0.577 ng/mL
- Zolmitriptan [CSF] ([2]; Activity EC40-EC60): 0.207 to 0.465 ng/mL
- c57/B16 mouse CSF Cmax (10 mg/Kg, i.p.) ([3]; 10 mg/Kg i.p.): 17.83 ng/mL
- estimated effective CSF Cmax ([3]; c57/Bl6 ASD mouse model, 10 mg/Kg i.p.): 62 nM
- Kp ([3]; male, c57/B16, mouse, CSF, intraperitoneal, 10 mg/kg): 0.0076
- Cmax [3, 12]: 17.8 ng/mL
- Kp [3, 12]: 0.0076
- safety and tolerability ([4]; adult healthy volunteers, oral TID multiple ascending doses, all Cohorts): safe and well tolerated
- Kp at 2 h ([4]; human, CSF, oral, read-out: CSF: plasma ratio for exposure): 0.03
- Ki [5]: 3.34 nM
- sociability index (SIZ/EIZ ratio) [6]: increased the sociability index
- attack time [7, 13]: reduction
- number of attacks [7, 13]: reduction in the number of attacks
- attack behavior, dose dependence ([7]; BALB/c resident mice, 3 and 10 mg/kg i.p., p<0.05, paired t-test): significant dose dependent effect of reduction in attack behavior
- normal locomotor activity ([7]; treated mice, 3 and 10 mg/kg): did not effect normal locomotor activity
- activity in GTPgS at CSF Cmax ([8]; CD-1 mouse, 3 mg/Kg i.p., CSF Cmax 18.8 nM): 36%
- activity in GTPgS at CSF Cmax ([8]; c57/Bl6 mouse, 10 mg/Kg i.p., CSF Cmax 62 nM): 65%
- difference between species in EC50 (rat vs human 5-HT1b) ([8]; rat EC50 relative to human EC50): 8.3 fold
- EC50 [8]: 33 nM
- Cmax ([9]; 3 mg/kg): 5.4 ng/mL
- Cmax ([9]; 10 mg/kg): 34.4 ng/mL
- CSF levels required for therapeutic effect, humans vs mice (fold lower) ([10]; extrapolated from species difference in EC50): about 8.3 fold
- EC50 [10]: 4 nM
- Attack Time (s) [1]: 18.46*** s
- Attack Time (s) ([1]; listed as zolmitriptan): greater reduction in attack time
- Latency to Attack [1]: 13.54 s

SMILES: CNCCc1c[nH]c2ccc(C[C@H]3COC(=O)N3)cc12 [NDMZ, N-desmethyl zolmitriptan]
- metabolite NDMZ level in CSF ([3]; male c57/B16 mice dosed with zolmitriptan 10 mg/kg i.p.): below the lower limit of quantification
- Ki [5]: 1.18 nM
- potency relative to zolmitriptan at human 5-HT1b ([5]; from Ki values): 2.83 fold
- metabolite NDMZ level [11]: below the lower limit of quantification

From US20220387396A1, “METHODS OF TREATING THE SYMPTOMS OF AUTISM SPECTRUM DISORDER” (MapLight Therapeutics, Inc., priority 2019, published 2022)
